Laboratory results reported in patent US20100197688A1, “EPHA4 RTK INHIBITORS FOR TREATMENT OF NEUROLOGICAL AND NEURODEGENERATIVE DISORDERS AND CANCER” (priority 2008, published 2010).

What was measured:
Jak2 = biological target: T1, Jak2 (Homo sapiens, UniProt O60674); test: Jak2 kinase counterscreen enzymatic assay (TR-FRET); assay type: biochemical; conditions: 5 μM ATP
T1 construct: purchased Cell Signaling, USA
Procedure: Counterscreen assays were developed for the tyrosine kinases src kinase and jak2 kinase, with a format essentially identical to the EphA4 kinase TR-FRET format. Jak2 (50 ng) (Cell Signaling, USA) was incubated with 0.5 μM of biotinylated FLT3 peptide (Cell Signaling, USA) in presence of 5 μM of ATP (Sigma). P60c-src (10 U/well) (Upstate biotechnology, USA) was incubated with biotinylated Poly(Glu Tyr) peptide (100 nM) in presence of 0.5 μM of ATP. The enzymatic reaction was stopped after 60 min by adding 15 mM EDTA. The detection reaction and energy transfer signal measurements were similar to those previously described. Results were expressed as ratios of the absorbencies 665/615.
Compounds were titrated in duplicate at 11 points concentration starting at 100 μM with a 3 fold increment. Compounds were diluted in DMSO. […] Percentage inhibition for each compound was then calculated based on the value of the 100% inhibition. Concentration-response curves were represented and the concentrations for 50% inhibition (IC50) were calculated.

[1] = test system: Jak2/Stat3 activation with Interferon Gamma in MCF-7 cells; test: Cell-based counterscreen assay (IFN-γ activated Jak2/Stat3, pGAS-luciferase); conditions: for IC50: Homo sapiens, MCF7, inflexion point, read-out: Cell Counter Screen Assay IP
From the text: EphA4 cell-based assay was based on the signaling pathway of EphA4, which involves activation of the tyrosine kinase Jak2 and the transcriptional activator Stat3. However, pharmacological agents could also interfere downstream of EphA4 signaling and particularly on Jak2 activity. To counterscreen this potential effect unrelated to EphA4 activity, a new assay was designed based on direct activation of the tyrosine kinase Jak2 and the transcriptional activator Stat3 with Interferon Gamma (IFN-γ).
MCF-7 cells were maintained in MEM growth media, supplemented with 10% fetal bovine serum, 2 mM L-glutamine, 1.5 g/L sodium bicarbonate, 0.1 mM non-essential amino acids, 1 mM sodium pyruvate, and 0.01 mg/ml bovine insulin. For the luciferase assay MCF-7 cells were co-transfected the next day with […] of pGAS-Luc and […] of empty vector pRL-CMV, which encoded the Renilla luciferase, and was included in the transfection mix for normalization. Six hours after transfection the cells were trypsinized and plated at 4.105 cells/ml into 96 well Black/Clear Poly-D-Lysine coated plates (Biocoat) that had been pre-spotted with compounds. […] Cells were lysed the next day using the Reporter Lysis Buffer (Promega), and the luciferase activity was measured using the Dual Luciferase Assay (Promega) following the manufacturer's directions. The Firefly and Renilla luminescences are read consecutively on a Top-Count (Perkin-Elmer).
Results are expressed as a ratio of the two luminsescence: Firefly Luciferase/Renilla Luciferase. Cell viability was assessed on parallel plates using the Cell Glo Assay (Promega) following the manufacturer's directions. Results are expressed as percent of cell death in comparison with vehicle-treated wells.
Compounds were titrated in duplicate at 10 points concentration starting at 100 μM with a 1.5 fold increment. Concentration-response curves were represented and the concentrations at the inflexion point (IP) were calculated. The maximum effect was given by the maximum percent inhibition calculated from the results of the control wells (containing only DMSO).

[2] = test system: C2C12 mouse myoblast cell line; test: Scratch wound assay, C2C12 cells; assay type: cell-based; conditions: for IC50: Mus musculus, C2C12, inflexion point, from AUC of % wound confluence, read-out: Scratch Assay C2C12 Cells IP; for Scratch Assay C2C12 Cells max inhibition in %: value in parentheses
Procedure: Cell Cultures: C2C12 mouse myoblast cell line (ATCC, VA, USA) was maintained in culture in DMEM media supplemented with 10% fetal bovine serum, 1 mM sodium pyruvate, 1.5 g/L sodium bicarbonate, and 100 IU of penicillin, […] of streptomycin. The cells were then differentiated into myotubes with DMEM supplemented with 2% horse serum for 3 days in 24 well ImageLock™ plate (Essen Instruments, Mich., USA).
Scratch wound assays are commonly used to assess the effects of drugs and drug candidates on the cellular proliferation and/or migration associated with wound closing. The IncuCyte™ system (Essen Instruments, Mich., USA), an automated imaging platform, provides ongoing, real-time images and quantitative data generated throughout the wound-closing process. Cells were maintained in 24 well ImageLock™ (Essen Instruments, Mich., USA) at 37° C. and […], until a confluent monolayer was achieved. A single scratch wound was then created in each well using the Essen Woundmaker™ (Essen Instruments, Mich., USA). It induced a mechanical scratch of the cell monolayer using plastic pipette tips (10-20 μl pipette tips, Eppendorff). Dead cells and other debris produced by the scratch were immediately washed with regular growth media. Cells were then treated with pharmacological agents and were placed into the IncuCyte™ at 37° C. and […], for two to three days. During this time, the wound area within each well was repeatedly imaged at fixed time intervals (every three hours). The IncuCyte™ scratch wound software generates a “wound mask” for each well. An initial wound mask is created for the first image (at time 0) that clearly delineates the border of the wound. A revised mask is generated for each subsequent image to track wound closure. Wound closure can be automatically monitored using the wound confluence (% confluence). Wound confluence can be graphed over time to evaluate the characteristics of wound closing in the presence of pharmacological agents.
The calculation of the area under the curve (AUC) of the % confluence function of the time gave a quantitative measurement of compounds efficacy on the scratch wound closing. Compounds were titrated in quadruplicate at 5 points concentration starting at […] with a two-fold increment. The percentage of inhibition was calculated from the AUCs at each dose in comparison with the AUCs of the control wells (1% DMSO). Concentration-response curves were represented and the concentrations at the inflexion point (IP) were calculated. The maximum effect was given by the maximum percent inhibition.

C2C12 cells = test: Proliferation assay (cell confluence), C2C12 cells; assay type: cell-based, mouse; conditions: at 5 μM
Procedure: C2C12 were plated at 15,000 cells per well and then differentiated into myotubes with DMEM supplemented with 2% horse serum for 3 days in 24 well ImageLock™ plate (Essen Instruments, Mich., USA). Primary Rat cortical astrocytes were plated at 3.105 cells/ml onto 24 well ImageLock™ plate.
Cells were placed into the IncuCyte™ at 37° C. and 95% CO2/5% O2, for two to three days. During this time, the cells within each well were repeatedly imaged at fixed time intervals (every three hours). The IncuCyte™ system automatically monitored the proliferation using the percentage of confluence. Percent of confluence can be graphed over time to evaluate the characteristics of proliferation in the presence of pharmacological agents.
[…] The percentage of reduction of cell confluence was calculated from the AUCs in comparison with the AUCs of the control wells (1% DMSO).

T1 sequence (O60674 whole entry, species assumed): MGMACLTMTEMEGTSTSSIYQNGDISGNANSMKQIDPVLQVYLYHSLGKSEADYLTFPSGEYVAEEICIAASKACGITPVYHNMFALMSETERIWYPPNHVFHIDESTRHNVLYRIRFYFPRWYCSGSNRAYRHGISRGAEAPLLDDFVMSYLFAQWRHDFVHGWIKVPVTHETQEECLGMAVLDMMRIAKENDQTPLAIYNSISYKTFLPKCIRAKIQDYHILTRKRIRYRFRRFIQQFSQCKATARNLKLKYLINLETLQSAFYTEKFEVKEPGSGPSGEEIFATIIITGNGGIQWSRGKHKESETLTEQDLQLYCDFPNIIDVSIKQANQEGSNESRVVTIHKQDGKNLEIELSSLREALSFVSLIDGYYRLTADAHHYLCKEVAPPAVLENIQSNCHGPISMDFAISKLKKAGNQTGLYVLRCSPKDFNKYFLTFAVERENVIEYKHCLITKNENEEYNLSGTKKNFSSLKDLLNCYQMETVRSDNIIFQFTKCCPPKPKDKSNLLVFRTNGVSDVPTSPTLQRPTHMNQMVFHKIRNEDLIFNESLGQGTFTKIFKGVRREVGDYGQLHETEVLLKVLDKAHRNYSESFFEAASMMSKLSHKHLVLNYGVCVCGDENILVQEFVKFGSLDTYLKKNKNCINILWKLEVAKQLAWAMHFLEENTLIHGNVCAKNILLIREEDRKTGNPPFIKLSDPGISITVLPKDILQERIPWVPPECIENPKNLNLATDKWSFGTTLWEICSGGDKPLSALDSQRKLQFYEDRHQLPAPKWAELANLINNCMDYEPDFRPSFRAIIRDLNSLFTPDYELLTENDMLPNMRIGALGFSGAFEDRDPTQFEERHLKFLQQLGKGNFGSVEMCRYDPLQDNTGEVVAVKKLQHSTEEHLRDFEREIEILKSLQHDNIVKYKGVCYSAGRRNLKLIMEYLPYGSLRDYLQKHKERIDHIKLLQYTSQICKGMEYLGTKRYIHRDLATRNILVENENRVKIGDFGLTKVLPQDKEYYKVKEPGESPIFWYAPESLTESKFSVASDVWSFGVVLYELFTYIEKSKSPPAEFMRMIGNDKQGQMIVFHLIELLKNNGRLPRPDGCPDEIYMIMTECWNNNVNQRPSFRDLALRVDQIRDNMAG

Structure (SMILES)	IC50 (Jak2) [µM]	IC50 [1] [µM]	IC50 [2] [µM]	Scratch Assay C2C12 Cells max inhibition in % [2] [%]	% Reduction Confluence C2C12 Cells (C2C12 cells) [% at 5 μM]	Cell Counter Screen Assay max inhibition in % ([1]; value in parentheses) [%]
Cc1ccc(NC(=O)c2cccc(C(F)(F)F)c2)cc1-c1ccc(-n2cccn2)cc1 [Example 120]	> 100	> 100	3.1	43	33.3	
Cc1ccc(NC(=O)c2cccc(C(F)(F)F)c2)cc1-c1ccc(O)c(NC=O)c1 [Example 133]	> 100	1.7	6	42	17.5	99
